Laboratory results from PubChem BioAssay (NCI).
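Test compounds were applied to cells in 96-well plates for 48 hours at 5 doses. Here, GI50 denotes the concentration required for 50% inhibition of growth. Definition used: TGI = concentration required for complete inhibition of growth.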

What was measured:
Test in all cases: growth of human tumour cells (NCI), 48 h
[1] = tested on: TK-10 renal
[2] = tested on: PC-3 prostate
[3] = tested on: SW-620 colon
[4] = tested on: MDA-MB-231 breast
[5] = tested on: SN12C renal
[6] = tested on: HOP-92 NSCLC
[7] = tested on: MCF7 breast
[8] = tested on: IGROV1 ovarian
[9] = tested on: SNB-19 CNS
[10] = tested on: HS 578T breast
[11] = tested on: CCRF-CEM leukemia
[12] = tested on: SK-MEL-28 melanoma
[13] = tested on: SK-MEL-5 melanoma
[14] = tested on: OVCAR-3 ovarian
[15] = tested on: UACC-62 melanoma
[16] = tested on: HL-60(TB) leukemia
[17] = tested on: COLO 205 colon
[18] = tested on: U251 CNS
[19] = tested on: OVCAR-8 ovarian
[20] = tested on: LOX IMVI melanoma
[21] = tested on: MOLT-4 leukemia
[22] = tested on: SK-MEL-2 melanoma
[23] = tested on: NCI-H23 lung
[24] = tested on: HCC-2998 colon
[25] = tested on: NCI-H226 lung
[26] = tested on: HT29 colon
[27] = tested on: MALME-3M melanoma
[28] = tested on: ACHN renal
[29] = tested on: SNB-75 CNS
[30] = tested on: KM12 colon
[31] = tested on: SK-OV-3 ovarian
[32] = tested on: SR leukemia
[33] = tested on: OVCAR-4 ovarian
[34] = tested on: M14 melanoma
[35] = tested on: T-47D breast
[36] = tested on: NCI-H522 lung
[37] = tested on: 786-0 renal
[38] = tested on: SF-539 CNS
[39] = tested on: NCI-H460 lung
[40] = tested on: UO-31 renal
[41] = tested on: RPMI-8226 leukemia
[42] = tested on: HOP-62 NSCLC
[43] = tested on: UACC-257 melanoma
[44] = tested on: SF-295 CNS
[45] = tested on: DU-145 prostate
[46] = tested on: A498 renal
[47] = tested on: K-562 leukemia
[48] = tested on: BT-549 breast
[49] = tested on: SF-268 CNS
[50] = tested on: NCI/ADR-RES ovarian
[51] = tested on: A549 NSCLC
[52] = tested on: OVCAR-5 ovarian
[53] = tested on: MDA-MB-435
[54] = tested on: CAKI-1 renal
[55] = tested on: HCT-116 colon
[56] = tested on: EKVX NSCLC
[57] = tested on: HCT-15 colon

COc1ccc2c(c1)O/C(=C\c1ncc([N+](=O)[O-])n1C)C2=O
GI50 [1]: 1.26 µM | TGI [1]: > 20 µM | GI50 [2]: 2.24 µM | TGI [2]: > 29.2 µM | GI50 [3]: 0.178 µM | TGI [3]: 1.31 µM | GI50 [4]: 0.256 µM | TGI [4]: 1.38 µM | GI50 [5]: 0.472 µM | TGI [5]: 2.09 µM | GI50 [6]: 0.555 µM | TGI [6]: 4.05 µM | GI50 [7]: 0.495 µM | TGI [7]: 9.37 µM | GI50 [8]: 0.558 µM | TGI [8]: 9.86 µM | GI50 [9]: 1.18 µM | TGI [9]: 6.26 µM | GI50 [10]: 0.641 µM | TGI [10]: > 21.9 µM | GI50 [11]: 0.264 µM | TGI [11]: 2.02 µM | GI50 [12]: 0.371 µM | TGI [12]: 2.55 µM | GI50 [13]: 0.246 µM | TGI [13]: 0.837 µM | GI50 [14]: 0.376 µM | TGI [14]: 1.88 µM | GI50 [15]: 0.848 µM | TGI [15]: 2.41 µM | GI50 [16]: 0.331 µM | GI50 [17]: 0.363 µM | TGI [17]: 2.24 µM | GI50 [18]: 0.812 µM | TGI [18]: 3.05 µM | GI50 [19]: 0.245 µM | TGI [19]: 1.94 µM | GI50 [20]: 0.256 µM | TGI [20]: 0.889 µM | GI50 [21]: 0.0453 µM | GI50 [22]: 1.13 µM | TGI [22]: 3.7 µM | GI50 [23]: 0.257 µM | TGI [23]: 1.32 µM | GI50 [24]: 0.899 µM | TGI [24]: 4.19 µM | GI50 [25]: 1.43 µM | TGI [25]: 4.27 µM | GI50 [26]: 0.291 µM | TGI [26]: 1.39 µM | GI50 [27]: 0.379 µM | TGI [27]: 1.7 µM | GI50 [28]: 0.158 µM | TGI [28]: 0.495 µM | GI50 [29]: 0.974 µM | TGI [29]: 3.78 µM | GI50 [30]: 0.776 µM | TGI [30]: 2.81 µM | GI50 [31]: 1.56 µM | TGI [31]: 6.86 µM | GI50 [32]: 0.0294 µM | GI50 [33]: 2.52 µM | TGI [33]: > 100 µM | GI50 [34]: 0.363 µM | TGI [34]: 1.53 µM | GI50 [35]: 5.46 µM | TGI [35]: > 100 µM | GI50 [36]: 0.266 µM | TGI [36]: 0.927 µM | GI50 [37]: 0.805 µM | TGI [37]: 3.89 µM | GI50 [38]: 1.27 µM | TGI [38]: 3.2 µM | GI50 [39]: 0.201 µM | TGI [39]: 0.619 µM | GI50 [40]: 0.334 µM | TGI [40]: 1.89 µM | GI50 [41]: 1.34 µM | TGI [41]: 5.75 µM | GI50 [42]: 1.1 µM | TGI [42]: 4.18 µM | GI50 [43]: 0.59 µM | TGI [43]: 2.16 µM | GI50 [44]: 1.4 µM | TGI [44]: 5.31 µM | GI50 [45]: 0.285 µM | TGI [45]: 0.794 µM | GI50 [46]: 1.2 µM | TGI [46]: 2.68 µM | GI50 [47]: 0.414 µM | GI50 [48]: 0.684 µM | TGI [48]: 2.94 µM | GI50 [49]: 0.268 µM | TGI [49]: 1.14 µM | GI50 [50]: 0.584 µM | TGI [50]: 9.51 µM | GI50 [51]: 0.561 µM | TGI [51]: 4.54 µM | GI50 [52]: 1.87 µM | TGI [52]: 6.39 µM | GI50 [53]: 0.224 µM | TGI [53]: 0.735 µM | GI50 [54]: 0.202 µM | TGI [54]: 0.544 µM

CC(=O)Nc1c(Br)cc2c(c1Br)Cc1cc(Br)ccc1-2
GI50 [1]: 12.4 µM | TGI [1]: 26.1 µM | GI50 [2]: 10.3 µM | TGI [2]: 26.2 µM | GI50 [3]: 3.97 µM | TGI [3]: 15.6 µM | GI50 [4]: 5.11 µM | TGI [4]: 20.3 µM | GI50 [5]: 4.67 µM | TGI [5]: 18.9 µM | GI50 [6]: 0.675 µM | TGI [6]: 22.5 µM | GI50 [7]: 9.29 µM | TGI [7]: 96.1 µM | GI50 [9]: 12.8 µM | TGI [9]: 43 µM | GI50 [10]: 1.96 µM | TGI [10]: 5.73 µM | GI50 [55]: 2.76 µM | TGI [55]: 10.9 µM | GI50 [11]: 24.1 µM | TGI [11]: > 100 µM | GI50 [12]: 5.54 µM | TGI [12]: 24.4 µM | GI50 [14]: 8.42 µM | TGI [14]: 21.1 µM | GI50 [15]: 11.1 µM | TGI [15]: > 100 µM | GI50 [16]: 50.5 µM | TGI [16]: > 100 µM | GI50 [17]: 2.44 µM | TGI [17]: 13.1 µM | GI50 [18]: 3.32 µM | TGI [18]: 12.4 µM | GI50 [19]: 4.62 µM | TGI [19]: 18.8 µM | GI50 [20]: 2.28 µM | TGI [20]: 6.6 µM | GI50 [21]: > 100 µM | TGI [21]: > 100 µM | GI50 [22]: 12.6 µM | TGI [22]: 32.7 µM | GI50 [23]: 3.64 µM | TGI [23]: 16 µM | GI50 [24]: 3.01 µM | TGI [24]: 11.8 µM | GI50 [26]: 24.3 µM | TGI [26]: > 100 µM | GI50 [27]: 7.26 µM | TGI [27]: 53.4 µM | GI50 [28]: 3.17 µM | TGI [28]: 14.1 µM | GI50 [29]: 1.24 µM | TGI [29]: 3.31 µM | GI50 [30]: 11.6 µM | TGI [30]: 55.1 µM | GI50 [31]: 4.22 µM | TGI [31]: 17.2 µM | GI50 [32]: 6.87 µM | TGI [32]: 31.1 µM | GI50 [56]: 0.392 µM | TGI [56]: 13.8 µM | GI50 [33]: 2.47 µM | TGI [33]: 6.6 µM | GI50 [34]: 3.7 µM | TGI [34]: 18.3 µM | GI50 [35]: 3.34 µM | TGI [35]: > 100 µM | GI50 [36]: 27 µM | TGI [36]: > 100 µM | GI50 [37]: 1.83 µM | TGI [37]: 3.43 µM | GI50 [38]: 13.6 µM | TGI [38]: 33.2 µM | GI50 [39]: 2.94 µM | TGI [39]: 11.4 µM | GI50 [40]: 0.581 µM | TGI [40]: 13.7 µM | GI50 [41]: 50.5 µM | TGI [41]: > 100 µM | GI50 [42]: 2.51 µM | TGI [42]: 13.9 µM | GI50 [43]: 19.3 µM | TGI [43]: > 100 µM | GI50 [44]: 1.61 µM | TGI [44]: 3.76 µM | GI50 [45]: 6.44 µM | TGI [45]: 21.4 µM | GI50 [46]: 3.87 µM | TGI [46]: 14.9 µM | GI50 [47]: 59.9 µM | TGI [47]: > 100 µM | GI50 [48]: 2.83 µM | TGI [48]: 13.4 µM | GI50 [49]: 9.04 µM | TGI [49]: 41 µM | GI50 [57]: 12.3 µM | TGI [57]: > 100 µM | GI50 [50]: 3.38 µM | TGI [50]: 13.6 µM | GI50 [51]: 3.94 µM | TGI [51]: 14.8 µM | GI50 [52]: 12 µM | TGI [52]: 27 µM | GI50 [53]: 4.15 µM | TGI [53]: 21.1 µM | GI50 [54]: 1.98 µM | TGI [54]: 10.7 µM
